Experimental data reported in ChEMBL document CHEMBL5050844 (2019).

Assays:
[1] = biological target: T1, E3 ubiquitin-protein ligase CBL-B (Homo sapiens, UniProt Q13191); test: Inhibition of N-terminal Avi-tagged human CBL-B (36 to 427 residues) incubated with 60 nM Src kinase for 1.5 hrs followed by incubation with fluorescently labeled UbcH5B-Ub for 1 hr and measured by TR-FRET assay; format: single protein
[2] = Induction of anti-CD3 antibodies-stimulated human T cell activation at 1 uM assessed fold increase in IL-2 secretion measured by ELISA assay; format: functional, T cell line; also: reference of the scale not given here
[3] = Induction of activation of human CD56+ CD3- NK cells co-cultured with human K562 cells in 1:1 ratio and assessed as increase in TNF-alpha secretion at 10 uM measured by ELISA assay; format: functional, Natural killer cell
[4] = Induction of anti-CD3 antibodies-stimulated human T cell activation at 8 uM assessed fold increase in CD25 expression measured by ELISA assay; format: functional, T cell line; also: reference of the scale not given here
[5] = Induction of activation of human CD56+ CD3- NK cells co-cultured with human K562 cells in 1:1 ratio and assessed as increase in TNF-alpha secretion at 2.5 uM measured by ELISA assay; format: functional, Natural killer cell
[6] = Induction of anti-CD3/CD28 antibodies-stimulated human anergic T cell activation at 0.37 uM assessed fold increase in IFN-gamma secretion measured by ELISA assay; format: functional, T cell line
[7] = Induction of activation of human CD56+ CD3- NK cells co-cultured with human K562 cells in 1:1 ratio and assessed as increase in TNF-alpha secretion at 0.625 uM measured by ELISA assay; format: functional, Natural killer cell
B cell = test: Induction of anti-IgM-stimulated human CD20+ B cell activation at 10 to 1000 uM assessed as increase in CD69 expression measured as mean fluorescence intensity AUC by flow cytometry analysis; format: functional, cell-based; details: dose 10-1000 µM
[8] = Induction of activation of human CD56+ CD3- NK cells co-cultured with human K562 cells in 1:1 ratio and assessed as increase in IFN-gamma secretion at 10 uM measured by ELISA assay; format: functional, Natural killer cell
[9] = Induction of anti-CD3/CD28 antibodies-stimulated human T cell activation at 1 uM assessed fold increase in CD25 expression measured by ELISA assay; format: functional, T cell line
[10] = Induction of anti-CD3/CD28 antibodies-stimulated human T cell activation at 4 uM assessed fold increase in CD25 expression measured by ELISA assay; format: functional, T cell line
[11] = Induction of activation of human CD56+ CD3- NK cells co-cultured with human K562 cells in 1:1 ratio and assessed as increase in IFN-gamma secretion at 2.5 uM measured by ELISA assay; format: functional, Natural killer cell
[12] = Induction of anti-CD3 antibodies-stimulated human exhausted T cell activation assessed fold increase in IFN-gamma secretion measured by ELISA assay; format: functional, T cell line; also: reference of the scale not given here
[13] = Induction of anti-CD3 antibodies-stimulated human exhausted T cell activation assessed fold increase in GM-CSF secretion measured by ELISA assay; format: functional, T cell line; also: reference of the scale not given here
[14] = Induction of anti-CD3 antibodies-stimulated human exhausted T cell activation assessed fold increase in IL-2 secretion measured by ELISA assay; format: functional, T cell line; also: reference of the scale not given here
[15] = Induction of anti-CD3/CD28 antibodies-stimulated human anergic T cell activation at 1.11 uM assessed fold increase in IFN-gamma secretion measured by ELISA assay; format: functional, T cell line
[16] = Induction of anti-CD3 antibodies-stimulated human T cell activation at 8 uM assessed fold increase in IL-2 secretion measured by ELISA assay; format: functional, T cell line; also: reference of the scale not given here
[17] = Induction of allogenic human T cell activation at 10 uM assessed fold increase in cell proliferation; format: functional, T cell line
[18] = Induction of anti-CD3/CD28 antibodies-stimulated human T cell activation at 0.3 uM assessed fold increase in IL-2 secretion measured by ELISA assay; format: functional, T cell line
[19] = Induction of activation of human CD56+ CD3- NK cells co-cultured with human K562 cells in 1:1 ratio and assessed as increase in IFN-gamma secretion at 0.625 uM measured by ELISA assay; format: functional, Natural killer cell
[20] = Induction of anti-CD3/CD28 antibodies-stimulated human anergic T cell activation at 10 uM assessed fold increase in IFN-gamma secretion measured by ELISA assay; format: functional, T cell line
[21] = Induction of allogenic human T cell activation at 3 uM assessed fold increase in cell proliferation; format: functional, T cell line
[22] = Induction of anti-CD3/CD28 antibodies-stimulated human T cell activation at 4 uM assessed fold increase in IL-2 secretion measured by ELISA assay; format: functional, T cell line
[23] = Induction of anti-CD3/CD28 antibodies-stimulated human T cell activation at 1 uM assessed fold increase in IL-2 secretion measured by ELISA assay; format: functional, T cell line
[24] = Induction of anti-CD3 antibodies-stimulated human T cell activation at 1 uM assessed fold increase in CD25 expression measured by ELISA assay; format: functional, T cell line; also: reference of the scale not given here
[25] = Induction of anti-CD3/CD28 antibodies-stimulated human T cell activation at 0.3 uM assessed fold increase in CD25 expression measured by ELISA assay; format: functional, T cell line
[26] = biological target: T1, E3 ubiquitin-protein ligase CBL-B; test: Binding affinity towards N-terminal biotinylated Avi-tagged human CBL-B (36 to 427 residues) measured by surface plasmon resonance assay

T1 sequence (Q13191 whole entry, the tested form may be a part): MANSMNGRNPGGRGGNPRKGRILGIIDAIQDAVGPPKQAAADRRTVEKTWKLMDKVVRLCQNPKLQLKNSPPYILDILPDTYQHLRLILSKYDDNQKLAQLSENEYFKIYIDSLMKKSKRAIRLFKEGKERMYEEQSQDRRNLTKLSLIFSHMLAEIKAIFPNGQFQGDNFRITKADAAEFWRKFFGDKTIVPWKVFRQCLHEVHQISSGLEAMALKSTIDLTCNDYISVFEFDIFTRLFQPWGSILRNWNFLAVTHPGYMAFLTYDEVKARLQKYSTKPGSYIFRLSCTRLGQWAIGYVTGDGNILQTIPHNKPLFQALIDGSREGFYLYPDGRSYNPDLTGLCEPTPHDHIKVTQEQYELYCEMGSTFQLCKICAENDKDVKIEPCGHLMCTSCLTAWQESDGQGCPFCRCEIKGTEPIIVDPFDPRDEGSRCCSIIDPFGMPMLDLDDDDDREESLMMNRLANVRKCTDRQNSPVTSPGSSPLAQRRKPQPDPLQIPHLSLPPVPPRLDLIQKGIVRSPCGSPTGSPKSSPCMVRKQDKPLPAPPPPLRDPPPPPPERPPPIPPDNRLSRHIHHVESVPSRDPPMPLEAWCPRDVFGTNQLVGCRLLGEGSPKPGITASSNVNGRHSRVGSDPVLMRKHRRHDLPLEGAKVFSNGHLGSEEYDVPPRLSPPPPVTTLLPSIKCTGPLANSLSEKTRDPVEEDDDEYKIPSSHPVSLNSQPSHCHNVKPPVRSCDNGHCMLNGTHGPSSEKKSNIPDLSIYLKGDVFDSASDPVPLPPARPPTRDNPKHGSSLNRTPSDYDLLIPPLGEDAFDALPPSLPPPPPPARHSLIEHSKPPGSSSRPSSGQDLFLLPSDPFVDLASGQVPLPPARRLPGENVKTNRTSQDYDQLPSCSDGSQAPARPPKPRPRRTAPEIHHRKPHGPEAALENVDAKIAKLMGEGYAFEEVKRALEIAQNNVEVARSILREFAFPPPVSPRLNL

IC50 [1] [nM]	Kd [26] [nM]	Compound	fold change (FC) [2]	fold change (FC) [4]	fold change (FC) [9]	fold change (FC) [10]	fold change (FC) [16]	fold change (FC) [18]	fold change (FC) [22]	fold change (FC) [23]	fold change (FC) [24]	fold change (FC) [25]	other results
< 100		Cn1cnnc1C(F)(F)[C@](C)(F)c1cccc(N2Cc3c(cc(N4CCNCC4)cc3C(F)(F)F)C2=O)c1	>=0.201	0.801	1.51	1.51	0.051	2.51	>=7.5	>=7.5	>=1.001	1.31	fold change (FC) [3]: 2.01; fold change (FC) [5]: 2.01; fold change (FC) [6]: <=2.5; fold change (FC) [7]: 2.01; AUC (B cell): 0.5; fold change (FC) [8]: 2.01; fold change (FC) [11]: 2.01; fold change (FC) [12]: 1.41; fold change (FC) [13]: <=1.4; fold change (FC) [14]: >3.01; fold change (FC) [15]: 2.51; fold change (FC) [17]: <=2; fold change (FC) [19]: 1.01; fold change (FC) [20]: 2.51; fold change (FC) [21]: <=2
< 100	< 100	CC(C)Nc1cc([C@H](C)Cc2nncn2C)cc(N2Cc3c(cccc3C(F)(F)F)C2=O)n1	0.101	>=1.001	1.01	1.31	>=0.201	1.01	>=7.5	2.51	0.801	1.01	
< 100	< 100	C[C@H](Cc1nncn1C)c1cccc(N2Cc3c(cc(N[C@H]4CCNC4)cc3C(F)(F)F)C2=O)c1	0.101	>=1.001	1.01	1.01	0.151	1.01	2.51	2.51	0.801	1.01	
< 100	< 100	C[C@H](Cc1nncn1C)c1cccc(N2Cc3c(cc(CN4C[C@@H](O)[C@H](F)C4)cc3C(F)(F)F)C2=O)c1	>=0.201	>=1.001	1.31	1.31	>=0.201	2.51	>=7.5	>=7.5	>=1.001	1.01	
< 100	< 100	Cc1c[nH]nc1-c1cc2c(c(C(F)(F)F)c1)CN(c1cccc([C@H](C)Cc3nncn3C)c1)C2=O	>=0.201	0.801	1.51	>=1.76	>=0.201	1.01	>=7.5	5	0.601	1.31	
< 100	< 100	Cn1cnnc1CC1(c2cccc(N3Cc4c(cc(CN5CCC(F)(F)C5)cc4C(F)(F)F)C3=O)c2)COC1	>=0.201	>=1.001	1.01	1.01	>=0.201	2.51	>=7.5	>=7.5	>=1.001	1.01	
